Reference: patent US11807625B2, “Capsid inhibitors for the prevention of HIV” (Gilead Sciences, Inc., priority 2019, dated 2023)

Experiment: PK of compound of Formula (Ia) after single subcutaneous dose of solution formulations in Wistar Han rats
Format: in vivo
Conditions: male, Wistar Han, rat, plasma, sc, 50 mg/kg, Wistar Han rats, SC 50 mg/kg
Description: Formulations containing the compound of Formula (Ia), or a pharmaceutically acceptable salt thereof, were prepared as solutions and optionally administered subcutaneously or intramuscularly to rats, rabbits, and/or dogs.
A solution of about 400 mg/mL of the compound of Formula (Ia) having 19.14 w/w % water, 40.66 w/w % PEG 300, 35.20 w/w % of a sodium salt of a compound of Formula (Ia), and 5.00% ethanol was prepared. The solution was administered subcutaneously to male Wistar Han rats at a dose level of about 50 mg/kg and dose volume of 0.125 mL/kg and the pharmacokinetic (PK) profile was determined.
A solution of about 500 mg/mL of the compound of Formula (Ia) having 16.64 w/w % water, 35.36 w/w % PEG 300, 43.00 w/w % of a sodium salt of a compound of Formula (Ia), and 5.00% ethanol was prepared. The solution was administered subcutaneously to male Wistar Han rats at a dose level of about 50 mg/kg and dose volume of 0.1 mL/kg and the pharmacokinetic (PK) profile was determined.
A solution of about 400 mg/mL of the compound of Formula (Ia) having 17.00 w/w % water, 36.40 w/w % PEG 300, 35.20 w/w % of a sodium salt of a compound of Formula (Ia), 5.00 w/w % ethanol, and 6.40 w/w % poloxamer 188 was prepared. The solution was administered subcutaneously to male beagle dogs at a dose level of about 12 mg/kg and male Wistar Han rats at a dose level of about 50 mg/kg. The pharmacokinetic profiles were determined, and the results for dogs are summarized in Table and Table, while the results for rats are summarized in Table and Table below.
A solution of about 500 mg/mL of the compound of Formula (Ia) having 14.06 w/w % water, 30.12 w/w % PEG 300, […] of a sodium salt of a compound of Formula (Ia), 5.00 w/w % ethanol, and 6.40 w/w % poloxamer 188 was prepared. The solution was administered subcutaneously to male beagle dogs at a dose level of about 12 mg/kg and male Wistar Han rats at a dose level of about 50 mg/kg. The pharmacokinetic profiles were determined, and the results for dogs are summarized in Table and Table, while the results for rats are summarized in Table and Table below.
A solution of about 300 mg/mL of the compound of Formula (Ia) having 23.33 w/w % water, 48.99 w/w % PEG 300, 26.47 w/w % of a sodium salt of a compound of Formula (Ia), and 1.21 w/w % poloxamer 188 was prepared. The solution was administered subcutaneously to male beagle dogs at a dose level of about 6 mg/kg and male Wistar Han rats at a dose level of about 50 mg/kg. The pharmacokinetic profiles were determined, and the results for dogs are summarized in Table and Table, while the results for rats are summarized in Table and Table below.
A solution of about 400 mg/mL of the compound of Formula (Ia) having 18.80 w/w % water, 40.25 w/w % PEG 300, 34.38 w/w % of a sodium salt of a compound of Formula (Ia), 5.00 w/w % ethanol, and 1.57 w/w % poloxamer 188 was prepared. The solution was administered subcutaneously to male beagle dogs at a dose level of about 12 mg/kg and male Wistar Han rats at a dose level of about 50 mg/kg. The pharmacokinetic profiles were determined, and the results for dogs are summarized in Table and Table, while the results for rats are summarized in Table and Table below.
A solution of about 500 mg/mL of the compound of Formula (Ia) having 16.29 w/w % water, 34.88 w/w % PEG 300, 41.92 w/w % of a sodium salt of a compound of Formula (Ia), 5.00 w/w % ethanol, and 1.91 w/w % poloxamer 188 was prepared. The solution was administered subcutaneously to male beagle dogs at a dose level of about 12 mg/kg and male Wistar Han rats at a dose level of about 50 mg/kg. The pharmacokinetic profiles were determined, and the results for dogs are summarized in Table and Table, while the results for rats are summarized in Table and Table below.
A solution of about 400 mg/mL of the compound of Formula (Ia) having 20.90 w/w % water, 44.72 w/w % PEG 300, and 34.38 w/w % of a sodium salt of a compound of Formula (Ia) was prepared. […]

[1] = 400 mg/mL solution AA (6.25% poloxamer 188), Mean n = 4
[2] = 400 mg/mL solution W (5.00% ethanol, 1.57% poloxamer 188), Mean n = 3
[3] = 400 mg/mL solution W (5.00% ethanol, 1.57% poloxamer 188), animals #1-#3
[4] = 400 mg/mL solution Y (water, PEG 300), Mean n = 4
[5] = 400 mg/mL solution Y (water, PEG 300), animals #1-#4
[6] = 400 mg/mL solution Z (3.13% poloxamer 188), Mean n = 4
[7] = 400 mg/mL solution Z (3.13% poloxamer 188), animals #1-#4
[8] = 400 mg/mL solution Z (3.13% poloxamer 188), Mean (#2 NS)
[9] = 400 mg/mL solution Z (3.13% poloxamer 188), animals #1, #3, #4 (#2 NS)
[10] = 500 mg/mL solution X (5.00% ethanol, 1.91% poloxamer 188), Mean n = 3
[11] = 500 mg/mL solution X (5.00% ethanol, 1.91% poloxamer 188), animals #1-#3

## CC(C)(C#Cc1ccc(-c2ccc(Cl)c3c(NS(C)(=O)=O)nn(CC(F)(F)F)c23)c([C@H](Cc2cc(F)cc(F)c2)NC(=O)Cn2nc(C(F)(F)F)c3c2C(F)(F)[C@@H]2C[C@H]32)n1)S(C)(=O)=O [compound of Formula (Ia)]
[1]
  concentration at 2016 h: 78.2 nM
  concentration at 2352 h: 75.4 nM
  concentration at 2688 h: 74.6 nM
  concentration at 3024 h: 69.8 nM
  concentration at 3360 h: 64.1 nM
  concentration at 3696 h: 65.7 nM
[2]
  concentration at 1 h: 30.6 nM
  concentration at 3 h: 53.4 nM
  concentration at 8 h: 76.9 nM
  concentration at 24 h: 120 nM
  concentration at 48 h: 152 nM
  concentration at 72 h: 152 nM
  concentration at 96 h: 138 nM
  concentration at 168 h: 118 nM
  concentration at 336 h: 171 nM
  concentration at 504 h: 248 nM
  concentration at 672 h: 261 nM
  concentration at 840 h: 290 nM
  concentration at 1008 h: 239 nM
  concentration at 1344 h: 305 nM
  concentration at 1680 h: 261 nM
  concentration at 2016 h: 201 nM
  concentration at 2352 h: 162 nM
  concentration at 2688 h: 173 nM
  concentration at 3024 h: 131 nM
  concentration at 3360 h: 129 nM
  concentration at 3696 h: 107 nM
[3]
  concentration at 24 h: 127 nM
  concentration at 48 h: 128 nM
  concentration at 72 h: 112 nM
  concentration at 96 h: 98.6 nM
  concentration at 168 h: 80 nM
  concentration at 336 h: 123 nM
  concentration at 504 h: 194 nM
  concentration at 672 h: 217 nM
  concentration at 840 h: 273 nM
  concentration at 1008 h: 176 nM
  concentration at 1344 h: 260 nM
  concentration at 1680 h: 206 nM
  concentration at 2016 h: 163 nM
  concentration at 2352 h: 164 nM
  concentration at 2688 h: 170 nM
  concentration at 3024 h: 145 nM
  concentration at 3360 h: 151 nM
  concentration at 3696 h: 133 nM
400 mg/mL solution W (5.00% ethanol, 1.57% poloxamer 188), 4032 h, Mean n = 3
  concentration at 4032 h: 97.5 nM
400 mg/mL solution W (5.00% ethanol, 1.57% poloxamer 188), 4704 h, Mean n = 3
  concentration at 4704 h: 57.9 nM
[4]
  concentration at 1 h: 28.6 nM
  concentration at 3 h: 52.2 nM
  concentration at 8 h: 65.8 nM
  concentration at 24 h: 93.2 nM
  concentration at 48 h: 110 nM
  concentration at 72 h: 109 nM
  concentration at 96 h: 95.3 nM
  concentration at 168 h: 85.7 nM
  concentration at 336 h: 103 nM
  concentration at 504 h: 131 nM
  concentration at 672 h: 151 nM
  concentration at 840 h: 158 nM
  concentration at 1008 h: 162 nM
  concentration at 1344 h: 159 nM
  concentration at 1680 h: 132 nM
  concentration at 2016 h: 117 nM
  concentration at 2352 h: 118 nM
  concentration at 2688 h: 119 nM
  concentration at 3024 h: 105 nM
  concentration at 3360 h: 95.2 nM
  concentration at 3696 h: 90.4 nM
[5]
  concentration at 1 h: 28.7 nM
  concentration at 3 h: 51.3 nM
  concentration at 8 h: 62.1 nM
  concentration at 24 h: 72.1 nM
  concentration at 48 h: 83 nM
  concentration at 72 h: 87.1 nM
[6]
  concentration at 1 h: 41.7 nM
  concentration at 3 h: 70.3 nM
  concentration at 8 h: 85.9 nM
  concentration at 24 h: 144 nM
  concentration at 48 h: 165 nM
  concentration at 72 h: 163 nM
  concentration at 96 h: 147 nM
  concentration at 168 h: 135 nM
  concentration at 336 h: 169 nM
  concentration at 504 h: 166 nM
  concentration at 672 h: 172 nM
  concentration at 840 h: 174 nM
  concentration at 1008 h: 164 nM
  concentration at 1344 h: 138 nM
  concentration at 1680 h: 127 nM
  concentration at 2016 h: 127 nM
  concentration at 2352 h: 127 nM
  concentration at 2688 h: 141 nM
  concentration at 3024 h: 133 nM
[7]
  concentration at 672 h: 163 nM
  concentration at 1008 h: 137 nM
  concentration at 1344 h: 113 nM
  concentration at 1680 h: 108 nM
  concentration at 2016 h: 111 nM
  concentration at 2352 h: 101 nM
  concentration at 2688 h: 118 nM
  concentration at 3024 h: 110 nM
[8]
  concentration at 3360 h: 133 nM
  concentration at 3696 h: 135 nM
[9]
  concentration at 3360 h: 109 nM
  concentration at 3696 h: 91.2 nM
[10]
  concentration at 1 h: 46.8 nM
  concentration at 3 h: 77.6 nM
  concentration at 8 h: 96.2 nM
  concentration at 24 h: 184 nM
  concentration at 48 h: 209 nM
  concentration at 72 h: 199 nM
  concentration at 96 h: 187 nM
  concentration at 168 h: 176 nM
  concentration at 336 h: 233 nM
  concentration at 504 h: 270 nM
  concentration at 672 h: 270 nM
  concentration at 840 h: 294 nM
  concentration at 1008 h: 235 nM
  concentration at 1344 h: 272 nM
  concentration at 1680 h: 247 nM
  concentration at 2016 h: 193 nM
  concentration at 2352 h: 158 nM
[11]
  concentration at 3 h: 89 nM
  concentration at 8 h: 115 nM
  concentration at 24 h: 164 nM
  concentration at 48 h: 209 nM
  concentration at 72 h: 207 nM
  concentration at 96 h: 193 nM
  concentration at 168 h: 204 nM
  concentration at 336 h: 269 nM
  concentration at 504 h: 311 nM
  concentration at 672 h: 312 nM
  concentration at 840 h: 361 nM
  concentration at 1008 h: 209 nM
  concentration at 1344 h: 314 nM
  concentration at 1680 h: 206 nM
  concentration at 2016 h: 161 nM
  concentration at 2352 h: 111 nM
